Measurements as given in publication PMC10901353, “Identification of a potent and selective LAPTc inhibitor by RapidFire-Mass Spectrometry, with antichagasic activity” (PLOS Neglected Tropical Diseases, 2024).
“And” between values parts separate entries of the source, which are not always exact repeats. Equal entries are not always repeated.

Test system: intracellular T. cruzi amastigotes
Assay: T. cruzi intracellular assay (high-content imaging, infected Vero cells)
Format: cell-based, Trypanosoma cruzi
Design: Max Effect (T. cruzi): unit not given here
Conditions: Trypanosoma cruzi, Vero, 96 h, read-out: pEC50 (T. cruzi) +/- StDev (converted)
Experimental: T. cruzi parasite, TcI strain Silvio X10/7 subclone A1 [34] was maintained in culture as previously described. Parasites were maintained as amastigotes by passaging on a weekly basis in Vero cells. Culture maintenance infections were carried out at an MOI (multiplicity of infection) of 1.5.
(§1) This assay was performed as described with the only modification that treatment was 96 h instead of 72 h. Briefly, Vero cells were infected overnight with tissue culture derived T. cruzi trypomastigotes in T225 tissue culture flasks (MOI 5). Any remaining free trypomastigotes were washed away with serum free MEM and the infected Vero cells were harvested by trypsinisation. Compounds (250 nL in DMSO) were dispensed using LabCyte ECHO (Beckman Coulter Life Sciences, USA) into each well of Corning black flat bottomed 384-well plates (Corning, USA). […] The infected Vero cells were then plated into the plates containing the compounds, at 4,000 cells per well in MEM media with 1% FCS. After 96 h incubation at 37°C in presence of 5% CO2, the plates were fixed with 4% formaldehyde for 20 min at room temperature and stained with 5 μg/mL Hoechst 33342. The plates were imaged on a Perkin Elmer Operetta high-content imaging system using a 20× objective. Images were analyzed using the Columbus system (Perkin Elmer). The algorithm first identified the Vero nuclei followed by demarcation of the cytoplasm and identification of intracellular amastigotes. This algorithm reported percent infected Vero cell and total number of Vero cells. All potency determinations were carried out in at least three independent replicates and are reported as pEC50 +/- standard deviation. pEC50 = -log(EC50[M]).

| SMILES | EC50 |
| --- | --- |
| N#CC(=Cc1cn(Cc2ccc(C(=O)O)o2)c2ccccc12)c1nc2ccccc2[nH]1 [Compound 15] | > 50.1 µM |

Same assay, conditions: Trypanosoma cruzi, Vero, individual replicates; read-out: Max Effect (T. cruzi)

| SMILES | Emax |
| --- | --- |
| N#CC(=Cc1cn(Cc2ccc(C(=O)O)o2)c2ccccc12)c1nc2ccccc2[nH]1 [Compound 15] | 24% |

Same assay, conditions: Trypanosoma cruzi, Vero, individual replicates; read-out: pEC50 (T. cruzi) (converted)

| SMILES | EC50 |
| --- | --- |
| N#CC(=Cc1cn(Cc2ccc(C(=O)O)o2)c2ccccc12)c1nc2ccccc2[nH]1 [Compound 15] | > 50.1 µM |

Same assay, conditions: individual replicates

| SMILES | Max Effect (T. cruzi) |
| --- | --- |
| N#CC(=Cc1cn(Cc2ccc(C(=O)O)o2)c2ccccc12)c1nc2ccccc2[nH]1 [Compound 15] | 19 and 38 |

Biological target: T1, LAPTc (acidic M17 leucyl-aminopeptidase from T. cruzi) (Trypanosoma cruzi, UniProt V5BWE3)
Assay: High-throughput single point screening for LAPTc inhibitors by RapidFire-MS
Format: biochemical
Conditions: primary screen, 30 μM, single replicate; read-out: Percent Inhibition
Experimental: (§2) This assay was previously described. The assay was performed in 384-well clear F-bottom polypropylene plates with a final reaction volume of 15 μL. The reaction mixture contained 7.5 μL LAPTc in 50 mM Tris-HCl, pH 7.5, 0.005% NP-40 and 7.5 μL LSTVIVR peptide substrate (Cambridge Research Biochemicals, Billingham, UK) in the same buffer was added to start the reaction. The reaction was performed at room temperature for 40 min and then stopped with 85 μL 1% formic acid containing 0.15 mg/mL STVIVR* internal standard (Cambridge Research Biochemicals, Billingham, UK).
Single point screening of a library of 3329 compounds was performed in 384-well clear plates (Greiner 781101) at room temperature. Test compounds (45 nL in DMSO) were transferred to assay plates by an ECHO 550 acoustic dispenser (Labcyte). LAPTc was tested at 3 nM with 150 μM (approximately the value of the apparent Michaelis-Menten constant -appKM- [16]) LSTVIVR peptide substrate in a 40 min reaction. Before addition of substrate, LAPTc was preincubated with 45 nL compounds or DMSO for 15 min. Compounds, dissolved in DMSO, were tested at 30 μM. Controls without compound (the same volume of DMSO, 0% inhibitory effect) and without enzyme and compound (100% inhibitory effect) were prepared. The experiment was performed without replicates. The remaining experimental conditions were maintained as previously described. Data were processed and analysed through ActivityBase XE (IDBS). The selection criterion for hits in this single point screen was percent inhibition larger than the mean plus three standard deviations. All primary screening data are available in ChEMBL (see Data Availability statement).

T1 sequence (V5BWE3 entry or part of it): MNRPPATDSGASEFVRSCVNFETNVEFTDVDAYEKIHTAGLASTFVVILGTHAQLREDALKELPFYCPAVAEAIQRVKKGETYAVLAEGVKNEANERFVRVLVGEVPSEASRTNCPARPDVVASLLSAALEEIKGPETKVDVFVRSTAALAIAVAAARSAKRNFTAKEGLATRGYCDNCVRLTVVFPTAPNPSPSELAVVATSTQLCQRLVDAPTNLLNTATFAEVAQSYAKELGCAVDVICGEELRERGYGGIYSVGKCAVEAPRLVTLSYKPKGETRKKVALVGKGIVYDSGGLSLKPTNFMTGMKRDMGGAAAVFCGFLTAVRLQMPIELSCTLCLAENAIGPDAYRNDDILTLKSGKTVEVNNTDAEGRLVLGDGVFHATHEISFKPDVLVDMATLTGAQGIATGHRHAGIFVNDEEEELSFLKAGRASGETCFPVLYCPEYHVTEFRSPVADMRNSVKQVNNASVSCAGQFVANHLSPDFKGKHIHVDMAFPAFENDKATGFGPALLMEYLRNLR

| SMILES | inhibition at 30 µM |
| --- | --- |
| N#CC(=Cc1cn(Cc2ccc(C(=O)O)o2)c2ccccc12)c1nc2ccccc2[nH]1 [Compound 15] | 39% |

Test system: HepG2 cells
Assay: Cytotoxicity assay on human HepG2 cells (resazurin)
Format: cell-based
Conditions: individual replicates

| SMILES | Max Effect (HepG2) | pEC50 (HepG2) |
| --- | --- | --- |
| N#CC(=Cc1cn(Cc2ccc(C(=O)O)o2)c2ccccc12)c1nc2ccccc2[nH]1 [Compound 15] | 2.23 and 3 | < 4.0 |

Test system: not listed separately
Assay: as above
Format: cell-based
Conditions: human; 72 h, two independent experiments; read-out: pCC50 (HepG2) (converted)

| SMILES | CC50 at 72 h |
| --- | --- |
| N#CC(=Cc1cn(Cc2ccc(C(=O)O)o2)c2ccccc12)c1nc2ccccc2[nH]1 [Compound 15] | > 100 µM |

Test system: Vero cells
Assay: Cytotoxicity against infected Vero host cells in T. cruzi intracellular assay
Format: cell-based, African green monkey
Design: Max Effect (Vero): unit not given here
Conditions: individual replicates
Experimental: (§3) Briefly, these cells were maintained at 37°C and 5% CO2 in MEM supplemented with 10% FCS, sub-culturing every 2–3 days at a ratio of 1:5 after 5 min treatment with Trypsin-EDTA (Gibco).
as §1, with “After 96 h incubation at 37°C in presence of 5% CO2, the plates were fixed with 4% formaldehyde for 20 min at room temperature and stained with 5 μg/mL Hoechst 33342.” left out

| SMILES | Max Effect (Vero) | pEC50 (Vero) |
| --- | --- | --- |
| N#CC(=Cc1cn(Cc2ccc(C(=O)O)o2)c2ccccc12)c1nc2ccccc2[nH]1 [Compound 15] | 63 and 36 and 65 and 66 | 4.4 and < 4.3 and 4.5 and 4.3 |

Test system: not listed separately
Assay: as above
Format: cell-based, African green monkey
Design: Max Effect (Vero): unit not given here
Conditions: African green monkey; infected Vero host cells, 96 h; read-out: pCC50 (Vero) +/- StDev (converted)
Experimental: as §3
as §1, with “After 96 h incubation at 37°C in presence of 5% CO2, the plates were fixed with 4% formaldehyde for 20 min at room temperature and stained with 5 μg/mL Hoechst 33342.” left out

| SMILES | CC50 at 96 h |
| --- | --- |
| N#CC(=Cc1cn(Cc2ccc(C(=O)O)o2)c2ccccc12)c1nc2ccccc2[nH]1 [Compound 15] | 38 µM |

Test system: PfA-M17 (M17 LAP from Plasmodium falciparum)
Assay: not given
Conditions: cited from earlier work

| SMILES | Ki |
| --- | --- |
| NC(CCc1ccccc1)P(=O)(O)CC(Cc1ccccc1)C(=O)O (stereo not shown) [Co4] | 0.013 µM |
| O=C(NO)C(NC(=O)C12CC3CC(CC(C3)C1)C2)c1ccc(-c2cc(F)c(F)c(F)c2)cc1 (stereo not shown) [Compound 6k] | 0.0289 µM |

Biological target: T1, LAPTc (acidic M17 leucyl-aminopeptidase from T. cruzi)
Assay: Dose-response studies for LAPTc inhibition by RapidFire-MS
Format: biochemical
Conditions: Initial hit confirmation, single replicate
Experimental: as §2
To generate half-maximum inhibitory concentration (IC50) data for LAPTc, 10-point dose-response curves with 100 μM as highest concentration and 1:2 dilution in DMSO (0.195–100 μM range) were prepared in 384 well plates. All other experimental conditions were as described above. All IC50 curve fitting was performed by four-parameter logistic dose-response curve fit using ActivityBase XE (IDBS). At least three replicates were generated for each hit compound.

| SMILES | Hill Slope |
| --- | --- |
| N#CC(=Cc1cn(Cc2ccc(C(=O)O)o2)c2ccccc12)c1nc2ccccc2[nH]1 [Compound 15] | 1.5 |

Same assay, conditions: Initial hit confirmation, single replicate; read-out: Maximum Effect

| SMILES | Emax |
| --- | --- |
| N#CC(=Cc1cn(Cc2ccc(C(=O)O)o2)c2ccccc12)c1nc2ccccc2[nH]1 [Compound 15] | 92% |

Same assay, conditions: Initial hit confirmation, single replicate; read-out: pIC50 (converted)

| SMILES | IC50 |
| --- | --- |
| N#CC(=Cc1cn(Cc2ccc(C(=O)O)o2)c2ccccc12)c1nc2ccccc2[nH]1 [Compound 15] | 12.6 µM |

Same assay, conditions: Replicate data generation, individual replicates

| SMILES | Hill Slope | Maximum Effect |
| --- | --- | --- |
| N#CC(=Cc1cn(Cc2ccc(C(=O)O)o2)c2ccccc12)c1nc2ccccc2[nH]1 [Compound 15] | 1.7 and 1.4 and 1.5 | 87% |

Same assay, conditions: Replicate data generation, individual replicates; read-out: Maximum Effect

| SMILES | Emax |
| --- | --- |
| N#CC(=Cc1cn(Cc2ccc(C(=O)O)o2)c2ccccc12)c1nc2ccccc2[nH]1 [Compound 15] | 88% |

Same assay, conditions: Replicate data generation, individual replicates; read-out: pIC50 (converted)

| SMILES | IC50 |
| --- | --- |
| N#CC(=Cc1cn(Cc2ccc(C(=O)O)o2)c2ccccc12)c1nc2ccccc2[nH]1 [Compound 15] | 25.1 µM and 31.6 µM |

Same assay, conditions: average of four independent replicates; read-out: pIC50 +/- StDev (LAPTc) (converted)

| SMILES | IC50 |
| --- | --- |
| N#CC(=Cc1cn(Cc2ccc(C(=O)O)o2)c2ccccc12)c1nc2ccccc2[nH]1 [Compound 15] | 22.9 µM |

Same assay, conditions: whether primary screen hit confirmed in potency experiment

| SMILES | Hit Confirmation |
| --- | --- |
| N#CC(=Cc1cn(Cc2ccc(C(=O)O)o2)c2ccccc12)c1nc2ccccc2[nH]1 [Compound 15] | confirmed |
